Reference: PubChem BioAssay AID1963826 (Molecular Pharmacology Branch, DTP, NCI, 2024)
pIC50: −log10 of the molar value.

Test system: 926638-142-R-J1-PDC complex spheroid viability
Assay: Anticancer human tumor 926638-142-R-J1-PDC patient-derived endometrial carcinoma cell line growth inhibition [POLQ]
Details: for pIC50: curve of first compound; for viability, T/C: stronger effect = lower value
Protocol: Multicellular complex tumor spheroid response to Polymerase (POL) inhibitors (novobiocin, ART-558, RP6685) in combination with a variety of drugs and investigational agents in selected tumor cell lines
The POL inhibitors (novobiocin, ART-558, and RP6685) were evaluated both individually and in combination with standard of care and investigational anticancer small molecules within a complex spheroid model of solid tumors. . Complex spheroids include a stromal component modeled by human endothelial cells (HUVEC) and fibroblasts modeled by human mesenchymal stem cells (MSCs). The concentration ranges selected for each drug and investigational agent were based upon clinically achievable concentrations if the clinical Cmax of the agent was known.
Compounds. The drugs and investigational agents: novobiocin (NSC847541), ART-558 (NSC835418), RP-6685 (NSC848927), peposertib (NSC802822), ceralasertib (NSC780249), elimusertib (NSC800525), camonsertib (NSC841442), AZD-1390 (NSC803789), olaparib (NSC753686), talazoparib (NSC767125), rucaparib (NSC756644), sotorasib (NSC818433), MRTX-1133 (NSC836407), SN-38 (NSC673596), topotecan (NSC609699), epotoside (NSC141540), doxorubicin (NSC123127), gemcitabine (NSC613327), 5-fluorouracil (NSC19893), paclitaxel (NSC125973), vemurafenib (NSC761431), MSA-2 (NSC828583), SN-011 (NSC837082), adavosertib (NSC754352), prexasertib (NSC758257), carboplatin (NSC241240) and oxaliplatin (NSC266046), were obtained from the National Cancer Institute (NCI) Developmental Therapeutics Program Chemical Repository (21). The FDA-approved anticancer drug set is available from the Developmental Therapeutics Program at https://dtp.cancer.gov/organization/dscb/obtaining/. […] The stock solutions were prepared in dimethyl sulfoxide (DMSO, Sigma-Aldrich, St. Louis, MO, cat. D2650), except for the platinum compounds which were prepared in saline (Quality Biological, Gaithersburg, MD, cat. 114-055-101), at 800-fold the tested concentration and stored at -70 degrees C prior to their use. All drugs and investigational agents were tested over a range starting from a high concentration at or near the clinical Cmax and decreasing in half-log increments. If the clinical Cmax for an agent had not been determined, the highest concentration tested was 10 microM, except for SN-38, which was tested at a high concentration of 1 microM.
Cell Culture. All cells were maintained in an incubator at 37 degrees C and 5% CO2 with 95% humidity. The PDC lines were cultured according to standard operating procedures established by the NCI PDMR (https://pdmr.cancer.gov). Table 3 of the manuscript, lists the cell lines along with the number of the three cell types plated to form the mct-spheroids and media for tumor cell growth. After thawing, all PDC lines, except 997537-175-T-J1-PDC and 415267-285-R-J2-PDC, were cultured in Matrigel-coated flasks prepared with a working solution of 1X Ham's F-12 nutrient mix, without supplementation (Thermo Fisher Scientific, cat. 11765054), 100 U/mL penicillin-streptomycin (Thermo Fisher Scientific, cat. 15140122), and 2.5% Matrigel (Corning Inc., Corning, NY, cat. 354248) for the first three passages. The two PDC lines 997537-175-T-J1-PDC and 415267-285-R-J2-PDC were cultured on uncoated flasks. The 857933-349-R-J2-PDC line was cultured in 6C/Colon 1B media containing advanced DMEM/F-12 (Thermo Fisher Scientific, cat. 12634028), 10 mM HEPES (Thermo Fisher Scientific, cat. 15630080), 1X GlutaMAX supplement (Thermo Fisher Scientific, cat. 35050061), 0.1 mg/mL primocin (InvivoGen, San Diego, CA, cat. ant-pm-2), 10% defined fetal bovine serum, heat inactivated (HyClone Laboratories Inc., Logan, UT, cat. SH30070.03HI), 50% L-WRN conditioned media (ATCC, cat. CRL-3276), 1.25 mM N-Acetyl-L-cysteine (Sigma-Aldrich, cat. A9165), 10 mM nicotinamide (Sigma-Aldrich, cat. N0636), 1X B-27 supplement (Thermo Fisher Scientific, cat. 17504044), 1X N-2 supplement (Thermo Fisher Scientific, cat. […]

[1] = second compound 0.0316 µM, first compound 0.0316 µM
[2] = second compound 0.0316 µM, first compound 0.1 µM
[3] = second compound 0.1 µM, first compound 0.0316 µM
[4] = second compound 0.1 µM, first compound 0.1 µM
[5] = second compound 0.316 µM, first compound 0.0316 µM
[6] = second compound 0.316 µM, first compound 0.1 µM
[7] = second compound 1 µM, first compound 0.0316 µM
[8] = second compound 1 µM, first compound 0.1 µM
[9] = second compound 3.16 µM, first compound 0.0316 µM
[10] = second compound 3.16 µM, first compound 0.1 µM
[11] = second compound 10 µM, first compound 0.0316 µM
[12] = second compound 10 µM, first compound 0.1 µM
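Further: spheroids exposed to drugs for one week before readout.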
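Wherever viability, T/C is given: percent viability relative to DMSO vehicle control wells set as 100%.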

CC1COCCN1c1cc(C2(O)CC3CCC(C2)O3)c2cnn(-c3ccn[nH]3)c2n1 (centres undefined) + COC1C(OC(N)=O)C(O)C(Oc2ccc3c(O)c(NC(=O)c4ccc(O)c(CC=C(C)C)c4)c(=O)oc3c2C)OC1(C)C
pIC50 (second compound 0.0316 µM): 6.67
pIC50 (second compound 0.1 µM): 6.69
pIC50 (second compound 0.316 µM): 6.70
pIC50 (second compound 1 µM): 6.66
pIC50 (second compound 3.16 µM): 6.65
pIC50 (second compound 10 µM): 6.74
viability, T/C [1]: 106%
viability, T/C [2]: 74.5%
viability, T/C (second compound 0.0316 µM, first compound 0.316 µM): 35.6%
viability, T/C (second compound 0.0316 µM, first compound 1 µM): 17.5%
viability, T/C (second compound 0.0316 µM, first compound 3.16 µM): 7.23%
viability, T/C (second compound 0.0316 µM, first compound 10 µM): 1.82%
viability, T/C [3]: 108%
viability, T/C [4]: 64.9%
viability, T/C (second compound 0.1 µM, first compound 0.316 µM): 46%
viability, T/C (second compound 0.1 µM, first compound 1 µM): 12.8%
viability, T/C (second compound 0.1 µM, first compound 3.16 µM): 6.56%
viability, T/C (second compound 0.1 µM, first compound 10 µM): 1.94%
viability, T/C [5]: 102%
viability, T/C [6]: 69.1%
viability, T/C (second compound 0.316 µM, first compound 0.316 µM): 37.4%
viability, T/C (second compound 0.316 µM, first compound 1 µM): 16.5%
viability, T/C (second compound 0.316 µM, first compound 3.16 µM): 7.59%
viability, T/C (second compound 0.316 µM, first compound 10 µM): 1.6%
viability, T/C [7]: 86.9%
viability, T/C [8]: 75.8%
viability, T/C (second compound 1 µM, first compound 0.316 µM): 36.8%
viability, T/C (second compound 1 µM, first compound 1 µM): 12.9%
viability, T/C (second compound 1 µM, first compound 3.16 µM): 7.07%
viability, T/C (second compound 1 µM, first compound 10 µM): 1.87%
viability, T/C [9]: 90.5%
viability, T/C [10]: 77.7%
viability, T/C (second compound 3.16 µM, first compound 0.316 µM): 36.5%
viability, T/C (second compound 3.16 µM, first compound 1 µM): 15%
viability, T/C (second compound 3.16 µM, first compound 3.16 µM): 6.73%
viability, T/C (second compound 3.16 µM, first compound 10 µM): 2%
viability, T/C [11]: 91.4%
viability, T/C [12]: 69.4%
viability, T/C (second compound 10 µM, first compound 0.316 µM): 31.1%
viability, T/C (second compound 10 µM, first compound 1 µM): 13%
viability, T/C (second compound 10 µM, first compound 3.16 µM): 7.88%
viability, T/C (second compound 10 µM, first compound 10 µM): 1.74%

Cn1ncnc1[C@H]1c2n[nH]c(=O)c3cc(F)cc(c23)N[C@@H]1c1ccc(F)cc1 + COC1C(OC(N)=O)C(O)C(Oc2ccc3c(O)c(NC(=O)c4ccc(O)c(CC=C(C)C)c4)c(=O)oc3c2C)OC1(C)C
pIC50 (second compound 0.0316 µM): < 7.00
pIC50 (second compound 0.1 µM): < 7.00
pIC50 (second compound 0.316 µM): < 7.00
pIC50 (second compound 1 µM): < 7.00
pIC50 (second compound 3.16 µM): < 7.00
pIC50 (second compound 10 µM): < 7.00
viability, T/C (second compound 0.0316 µM, first compound 0.000316 µM): 84.5%
viability, T/C (second compound 0.0316 µM, first compound 0.001 µM): 83.7%
viability, T/C (second compound 0.0316 µM, first compound 0.00316 µM): 81.7%
viability, T/C (second compound 0.0316 µM, first compound 0.01 µM): 86.5%
viability, T/C [1]: 71.5%
viability, T/C [2]: 79.5%
viability, T/C (second compound 0.1 µM, first compound 0.000316 µM): 106%
viability, T/C (second compound 0.1 µM, first compound 0.001 µM): 96.4%
viability, T/C (second compound 0.1 µM, first compound 0.00316 µM): 86%
viability, T/C (second compound 0.1 µM, first compound 0.01 µM): 90.5%
viability, T/C [3]: 76.3%
viability, T/C [4]: 69.5%
viability, T/C (second compound 0.316 µM, first compound 0.000316 µM): 117%
viability, T/C (second compound 0.316 µM, first compound 0.001 µM): 86.4%
viability, T/C (second compound 0.316 µM, first compound 0.00316 µM): 72.7%
viability, T/C (second compound 0.316 µM, first compound 0.01 µM): 78.5%
viability, T/C [5]: 69.7%
viability, T/C [6]: 60.3%
viability, T/C (second compound 1 µM, first compound 0.000316 µM): 85.5%
viability, T/C (second compound 1 µM, first compound 0.001 µM): 94.1%
viability, T/C (second compound 1 µM, first compound 0.00316 µM): 92.3%
viability, T/C (second compound 1 µM, first compound 0.01 µM): 60.1%
viability, T/C [7]: 78.6%
viability, T/C [8]: 76.7%
viability, T/C (second compound 3.16 µM, first compound 0.000316 µM): 68.5%
viability, T/C (second compound 3.16 µM, first compound 0.001 µM): 81.7%
viability, T/C (second compound 3.16 µM, first compound 0.00316 µM): 74.3%
viability, T/C (second compound 3.16 µM, first compound 0.01 µM): 81.7%
viability, T/C [9]: 78.5%
viability, T/C [10]: 69.6%
viability, T/C (second compound 10 µM, first compound 0.000316 µM): 84.8%
viability, T/C (second compound 10 µM, first compound 0.001 µM): 90.2%
viability, T/C (second compound 10 µM, first compound 0.00316 µM): 77.6%
viability, T/C (second compound 10 µM, first compound 0.01 µM): 81%
viability, T/C [11]: 82.4%
viability, T/C [12]: 76.6%
